Consider one compound from ChEMBL document CHEMBL1828583, “Discovery process and pharmacological characterization of a novel dual orexin 1 and orexin 2 receptor antagonist useful for treatment of sleep disorders” (Bioorg Med Chem Lett, 2011).

Data set [1] relates to Rattus norvegicus. Put plainly: Hypnotic activity in CD rat Circadian time model assessed as non-rapid eye movement latency period at 3 mg/kg, po administered during active phase measured from starting time CT18 (reference value: 46.1 +/- 10.0 mins). The class given is functional.
Data set [2] can be described thus: Volume of distribution at steady state in CD rat at 1 mg/kg, iv and 3 mg/kg, po. Format: ADME, organism-based. To be noted: in vivo, read-out: Vdss.
Data set [3] deals with T1, Orexin/Hypocretin receptor type 1 (Homo sapiens) (UniProt O43613).
T1 sequence (whole entry): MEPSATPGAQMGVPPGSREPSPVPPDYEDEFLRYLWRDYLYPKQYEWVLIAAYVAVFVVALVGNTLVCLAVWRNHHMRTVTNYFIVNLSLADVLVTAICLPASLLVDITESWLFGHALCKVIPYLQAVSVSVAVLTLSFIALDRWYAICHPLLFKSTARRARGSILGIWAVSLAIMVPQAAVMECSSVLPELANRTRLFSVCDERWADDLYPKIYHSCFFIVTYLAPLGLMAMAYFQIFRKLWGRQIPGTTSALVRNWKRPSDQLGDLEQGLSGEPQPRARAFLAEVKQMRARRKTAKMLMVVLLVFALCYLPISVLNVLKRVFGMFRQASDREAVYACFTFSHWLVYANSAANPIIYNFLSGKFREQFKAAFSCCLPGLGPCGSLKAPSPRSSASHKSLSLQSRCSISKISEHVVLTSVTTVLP
Put plainly: Agonist activity at recombinant human OX1R expressed in CHO cells at 1 uM. Format: functional, cell-based.

The test system of data set [4] is Rattus norvegicus. Put plainly: Hypnotic activity in po dosed CD rat Circadian time model assessed as total sleep time measured during active phase after 5 hrs. Format: functional, organism-based.
Data set [5] concerns Rattus norvegicus. In words: Hypnotic activity in CD rat Circadian time model assessed as rapid eye movement latency period at 30 mg/kg, po administered during active phase measured from starting time CT18 (reference value: 146.3 +/- 54.2 mins). Format: functional.
Data set [6] relates to Rattus norvegicus. Put plainly: Hypnotic activity in CD rat Circadian time model assessed as rapid eye movement latency period at 3 mg/kg, po administered during active phase measured from starting time CT18 (reference value: 146.3 +/- 54.2 mins). Format: functional.
Data set [7] deals with Rattus norvegicus. In words: Hypnotic activity in CD rat Circadian time model assessed as rapid eye movement sleep at 10 mg/kg, po administered during active phase measured from starting time CT18 (reference value: 3.22 +/- 0.73 mins). The class given is functional.
Data set [8] concerns the target T2, Orexin/Hypocretin receptor type 1 (Rattus norvegicus) (UniProt P56718).
T2 sequence (whole entry): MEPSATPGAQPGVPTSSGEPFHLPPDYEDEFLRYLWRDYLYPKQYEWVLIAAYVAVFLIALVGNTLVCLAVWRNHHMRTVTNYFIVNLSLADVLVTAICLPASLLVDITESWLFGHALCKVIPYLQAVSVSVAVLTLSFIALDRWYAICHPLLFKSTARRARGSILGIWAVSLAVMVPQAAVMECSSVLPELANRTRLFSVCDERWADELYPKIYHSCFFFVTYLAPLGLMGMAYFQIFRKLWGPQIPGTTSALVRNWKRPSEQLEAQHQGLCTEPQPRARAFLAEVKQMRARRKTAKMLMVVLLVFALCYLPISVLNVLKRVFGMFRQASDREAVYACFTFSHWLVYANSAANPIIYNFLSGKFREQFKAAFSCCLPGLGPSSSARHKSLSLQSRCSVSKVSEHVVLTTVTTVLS
Put plainly: Agonist activity at recombinant rat OX1R expressed in CHO cells at 1 uM. The class given is functional, cell-based.

Data set [9] relates to Rattus norvegicus. In words: Hypnotic activity in CD rat Circadian time model assessed as awake period at 30 mg/kg, po administered during active phase measured from starting time CT18 (reference value: 218 +/- 11.32 mins). Format: functional.
Data set [10] deals with Rattus norvegicus. In words: Hypnotic activity in CD rat Circadian time model assessed as rapid eye movement sleep at 30 mg/kg, po administered during active phase measured from starting time CT18 (reference value: 3.22 +/- 0.73 mins). The class given is functional.
A short description of data set [11]: Plasma clearance in CD rat at 1 mg/kg, iv and 3 mg/kg, po. Format: ADME, organism-based.
Data set [12] has as its system Rattus norvegicus. In words: Hypnotic activity in CD rat Circadian time model assessed as non-rapid eye movement latency period at 30 mg/kg, po administered during active phase measured from starting time CT18 (reference value: 46.1 +/- 10.0 mins). Format: functional.
The test system of data set [13] is Rattus norvegicus. Put plainly: Hypnotic activity in CD rat Circadian time model assessed as non-rapid eye movement sleep at 3 mg/kg, po administered during active phase measured from starting time CT18 (reference value: 78.1 +/- 11.3 mins). Format: functional.
The test system of data set [14] is Rattus norvegicus. In words: Hypnotic activity in CD rat Circadian time model assessed as non-rapid eye movement sleep at 10 mg/kg, po administered during active phase measured from starting time CT18 (reference value: 78.1 +/- 11.3 mins). Format: functional.
Data set [15] deals with Liver microsomes. In words: Intrinsic clearance in human liver microsomes. Format: ADME, Microsome.
A short description of data set [16]: Fraction unbound in CD rat plasma at 1 mg/kg, iv after 1 hrs. Format: ADME, organism-based. The arrangement: dose 1 mg/kg, route intravenous.
Data set [17] deals with Rattus norvegicus. In words: Neurotoxicity in CD rat assessed as impairment of motor coordination at 1 to 10 mg/kg, po by rotarod test in presence of 1 g/kg, ip ethanol. The arrangement: dose 1-10 mg/kg, route oral. To be noted: in vivo. Format: toxicity, organism-based. For orientation: In the rotarod test animals must keep their balance on a rotating rod.
Data set [18] deals with Rattus norvegicus. In words: Hypnotic activity in CD rat Circadian time model assessed as non-rapid eye movement latency period at 10 mg/kg, po administered during active phase measured from starting time CT18 (reference value: 46.1 +/- 10.0 mins). The class given is functional.
Data set [19] is described as follows: Half life in CD rat at 1 mg/kg, iv and 3 mg/kg, po. The settings on record: in vivo. Format: ADME, organism-based.
In data set [20] the test system is Rattus norvegicus. Put plainly: Neurotoxicity in CD rat assessed as impairment of motor coordination at 1 to 10 mg/kg, po by rotarod test. The settings on record: in vivo. The class given is toxicity, organism-based. The arrangement: dose 1-10 mg/kg, route oral.
Data set [21] relates to Rattus norvegicus. In words: Hypnotic activity in po dosed CD rat Circadian time model assessed as non-rapid eye movement sleep administered during active phase measured from starting time CT18. Format: functional, organism-based.
Data set [22] deals with Rattus norvegicus. Put plainly: Hypnotic activity in CD rat Circadian time model assessed as awake period at 3 mg/kg, po administered during active phase measured from starting time CT18 (reference value: 218 +/- 11.32 mins). Format: functional.
Data set [23] has as its system Rattus norvegicus. In words: Hypnotic activity in po dosed CD rat Circadian time model assessed as non-rapid eye movement latency period during active phase measured from starting time CT18. Format: functional, organism-based.
Data set [24] concerns Rattus norvegicus. Put plainly: Hypnotic activity in CD rat Circadian time model assessed as total sleep time at 10 mg/kg, po administered during active phase (reference value: 81 +/- 11 mins). Format: functional.

Calls of active or inactive are those of the source. No cut-off for these calls is given here.

As to `Cc1nc(C(=O)N2CCCC[C@H]2CNC(=O)c2cccc3occc23)c(-c2ccc(F)cc2)s1` [SB-649868], the Time came to 19 min in data set [1]; 13.8 min in data set [5]; 30.1 min in [6]; 17.7 min in data set [7]; 87 min in [9]; 24.1 min in data set [10]. The Time in [12] was determined as 8.3 min; in data set [13], 99.3 min; in [14], 165.2 min; in data set [18], 11.6 min; in data set [22] it was 194 min; in [24] it was 182 min. Moreover, in [2], the Vd amounted to 1.1 L/kg. For the same compound, the result in [3] and in data set [8] was inactive. The Activity entry in data set [4] is “Dose-dependent effect”; in data set [17] it was “Non-toxic”; in [20] it was “Non-toxic”; in data set [21], “Dose-dependent effect”; in [23], “Dose-dependent effect”. The clearance in [11] is 24 mL/min/kg. The CL in data set [15] turned out to be 15.1 mL/min/g. In addition, in data set [16], the fraction unbound – broadly, free concentration divided by total concentration – at 1 h was determined as 0.0134. Also, the half-life (in general, how long it takes for the measured level to halve) in data set [19] was less than 36 min.
